Measured values from BindingDB's records for PubMed 20126400 (University of Oklahoma, 2010).

Legend:
Assay in all cases: Ray2010 Assay 74
[1] = target: T1, Gamma-aminobutyric acid receptor subunit alpha-1 (Homo sapiens, UniProt P14867)
T1 sequence (P14867 whole entry): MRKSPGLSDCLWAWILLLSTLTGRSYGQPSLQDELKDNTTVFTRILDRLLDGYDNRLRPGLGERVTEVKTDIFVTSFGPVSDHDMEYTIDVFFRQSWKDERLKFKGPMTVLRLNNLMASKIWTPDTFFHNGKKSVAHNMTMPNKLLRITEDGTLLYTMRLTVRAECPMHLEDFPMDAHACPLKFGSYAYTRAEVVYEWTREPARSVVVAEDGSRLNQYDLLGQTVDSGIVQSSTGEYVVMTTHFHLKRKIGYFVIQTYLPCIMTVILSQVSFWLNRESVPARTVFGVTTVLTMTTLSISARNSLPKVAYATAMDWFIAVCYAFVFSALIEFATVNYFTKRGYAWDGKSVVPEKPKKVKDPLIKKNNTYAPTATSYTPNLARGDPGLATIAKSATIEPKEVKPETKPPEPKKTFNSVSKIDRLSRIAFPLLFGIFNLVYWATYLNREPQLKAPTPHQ
Excerpt: (§1) Table S2 shows raw Ki data for the current study combined with data collected from the literature for the ten additional compounds.

[2] = target: T2, 5-hydroxytryptamine receptor 3A (Homo sapiens, UniProt P46098)
T2 sequence (P46098 whole entry): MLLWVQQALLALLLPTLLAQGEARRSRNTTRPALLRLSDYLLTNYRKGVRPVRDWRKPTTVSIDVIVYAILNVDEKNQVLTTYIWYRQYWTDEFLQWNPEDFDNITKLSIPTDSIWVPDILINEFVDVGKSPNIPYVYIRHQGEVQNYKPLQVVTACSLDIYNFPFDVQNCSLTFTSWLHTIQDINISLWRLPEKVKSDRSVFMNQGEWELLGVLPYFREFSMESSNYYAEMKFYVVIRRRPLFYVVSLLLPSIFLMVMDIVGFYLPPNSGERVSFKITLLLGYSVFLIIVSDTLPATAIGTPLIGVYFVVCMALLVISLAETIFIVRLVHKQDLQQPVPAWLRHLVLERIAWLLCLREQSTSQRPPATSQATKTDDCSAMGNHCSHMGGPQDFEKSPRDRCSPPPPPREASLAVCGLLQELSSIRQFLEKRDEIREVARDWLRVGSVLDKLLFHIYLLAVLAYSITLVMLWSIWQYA
Excerpt: as §1

[3] = target: 5-hydroxytryptamine receptor 6 (Homo sapiens, UniProt P50406)
Excerpt: as §1

[4] = target: 5-hydroxytryptamine receptor 1D (Homo sapiens, UniProt P28221)
Excerpt: as §1

[5] = target: T3, 5-hydroxytryptamine receptor 1A (Homo sapiens, UniProt P08908)
T3 sequence (P08908 whole entry): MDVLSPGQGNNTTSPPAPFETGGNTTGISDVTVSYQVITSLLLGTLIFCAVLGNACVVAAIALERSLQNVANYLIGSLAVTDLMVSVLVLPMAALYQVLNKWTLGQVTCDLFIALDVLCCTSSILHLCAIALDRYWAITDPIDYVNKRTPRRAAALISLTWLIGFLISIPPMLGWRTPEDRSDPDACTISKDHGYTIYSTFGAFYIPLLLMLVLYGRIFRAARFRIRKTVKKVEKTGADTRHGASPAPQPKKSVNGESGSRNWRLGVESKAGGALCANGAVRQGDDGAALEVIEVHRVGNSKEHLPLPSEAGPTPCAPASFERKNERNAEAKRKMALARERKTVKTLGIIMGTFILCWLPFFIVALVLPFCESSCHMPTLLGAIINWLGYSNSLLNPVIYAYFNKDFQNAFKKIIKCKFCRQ
Excerpt: as §1

[6] = target: 5-hydroxytryptamine receptor 2A (Homo sapiens, UniProt P28223)
Excerpt: as §1

[7] = target: 5-hydroxytryptamine receptor 2B (Homo sapiens, UniProt P41595)
Excerpt: as §1

[8] = target: Histamine H4 receptor (Homo sapiens, UniProt Q9H3N8)
Excerpt: as §1

[9] = target: T4, Alpha-2A adrenergic receptor (Homo sapiens, UniProt P08913)
T4 sequence (P08913 whole entry): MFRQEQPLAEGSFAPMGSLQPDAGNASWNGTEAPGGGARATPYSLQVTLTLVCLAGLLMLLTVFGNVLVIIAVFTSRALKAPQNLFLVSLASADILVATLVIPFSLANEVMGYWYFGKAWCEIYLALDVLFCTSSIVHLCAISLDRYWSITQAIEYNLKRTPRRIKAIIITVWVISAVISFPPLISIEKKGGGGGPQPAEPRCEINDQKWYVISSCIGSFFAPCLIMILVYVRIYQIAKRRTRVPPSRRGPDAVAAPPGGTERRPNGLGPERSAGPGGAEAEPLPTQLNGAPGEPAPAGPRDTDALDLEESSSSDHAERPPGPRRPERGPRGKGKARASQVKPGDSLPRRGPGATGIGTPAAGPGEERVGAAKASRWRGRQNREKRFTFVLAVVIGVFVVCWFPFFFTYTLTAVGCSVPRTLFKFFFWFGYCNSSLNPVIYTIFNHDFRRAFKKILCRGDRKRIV
Excerpt: as §1

[10] = target: Sodium-dependent serotonin transporter (Homo sapiens, UniProt P31645)
Excerpt: as §1

[11] = target: T5, D(4) dopamine receptor (Homo sapiens, UniProt P21917)
T5 sequence (P21917 whole entry): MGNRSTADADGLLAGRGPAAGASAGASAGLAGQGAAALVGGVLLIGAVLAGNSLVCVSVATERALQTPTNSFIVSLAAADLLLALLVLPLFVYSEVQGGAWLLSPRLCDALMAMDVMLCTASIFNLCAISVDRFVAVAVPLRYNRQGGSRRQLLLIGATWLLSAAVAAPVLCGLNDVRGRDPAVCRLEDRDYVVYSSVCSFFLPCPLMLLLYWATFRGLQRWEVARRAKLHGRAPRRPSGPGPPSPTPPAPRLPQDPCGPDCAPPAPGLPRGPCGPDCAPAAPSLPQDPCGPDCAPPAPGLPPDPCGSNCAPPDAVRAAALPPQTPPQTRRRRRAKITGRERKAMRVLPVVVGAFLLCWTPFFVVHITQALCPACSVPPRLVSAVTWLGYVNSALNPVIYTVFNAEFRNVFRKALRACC
Excerpt: as §1

[12] = target: 5-hydroxytryptamine receptor 1E (Homo sapiens, UniProt P28566)
Excerpt: as §1

[13] = target: Delta-type opioid receptor (Homo sapiens, UniProt P41143)
Excerpt: as §1

[14] = target: Mu-type opioid receptor (Homo sapiens, UniProt P35372)
Excerpt: as §1

[15] = target: Glutamate receptor ionotropic, NMDA 2A (Homo sapiens, UniProt Q12879)
Excerpt: as §1

Chain of Mu-type opioid receptor (P35372 whole entry): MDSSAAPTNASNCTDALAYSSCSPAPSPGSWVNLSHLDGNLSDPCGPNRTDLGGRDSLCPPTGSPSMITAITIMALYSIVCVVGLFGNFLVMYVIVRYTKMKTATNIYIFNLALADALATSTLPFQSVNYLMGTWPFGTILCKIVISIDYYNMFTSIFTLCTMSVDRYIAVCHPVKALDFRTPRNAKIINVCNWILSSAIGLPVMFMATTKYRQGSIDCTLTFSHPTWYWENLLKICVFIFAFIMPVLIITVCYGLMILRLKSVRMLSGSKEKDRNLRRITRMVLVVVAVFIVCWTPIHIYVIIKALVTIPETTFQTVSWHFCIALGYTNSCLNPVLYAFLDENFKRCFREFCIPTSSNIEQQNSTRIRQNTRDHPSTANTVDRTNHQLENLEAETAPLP
Chain of Delta-type opioid receptor (P41143 whole entry): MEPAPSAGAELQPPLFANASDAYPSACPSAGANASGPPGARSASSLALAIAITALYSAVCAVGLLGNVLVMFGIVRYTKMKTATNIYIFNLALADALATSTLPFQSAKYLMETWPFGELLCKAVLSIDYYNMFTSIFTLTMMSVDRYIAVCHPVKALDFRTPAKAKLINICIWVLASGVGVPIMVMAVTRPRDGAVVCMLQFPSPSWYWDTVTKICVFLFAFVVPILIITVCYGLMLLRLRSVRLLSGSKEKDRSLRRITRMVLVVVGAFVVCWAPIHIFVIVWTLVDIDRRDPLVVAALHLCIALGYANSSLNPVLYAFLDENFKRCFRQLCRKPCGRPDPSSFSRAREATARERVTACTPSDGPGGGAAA
Chain of 5-hydroxytryptamine receptor 1E (P28566 whole entry): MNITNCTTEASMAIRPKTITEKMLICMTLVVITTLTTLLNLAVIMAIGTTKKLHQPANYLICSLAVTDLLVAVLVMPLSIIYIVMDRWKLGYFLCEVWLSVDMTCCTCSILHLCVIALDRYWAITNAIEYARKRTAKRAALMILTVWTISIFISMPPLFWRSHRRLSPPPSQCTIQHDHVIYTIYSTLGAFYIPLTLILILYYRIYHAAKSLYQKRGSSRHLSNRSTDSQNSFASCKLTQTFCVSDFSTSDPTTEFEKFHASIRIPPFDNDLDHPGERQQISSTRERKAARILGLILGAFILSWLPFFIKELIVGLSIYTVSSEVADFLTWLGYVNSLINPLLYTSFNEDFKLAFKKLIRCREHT
Chain of Sodium-dependent serotonin transporter (P31645 whole entry): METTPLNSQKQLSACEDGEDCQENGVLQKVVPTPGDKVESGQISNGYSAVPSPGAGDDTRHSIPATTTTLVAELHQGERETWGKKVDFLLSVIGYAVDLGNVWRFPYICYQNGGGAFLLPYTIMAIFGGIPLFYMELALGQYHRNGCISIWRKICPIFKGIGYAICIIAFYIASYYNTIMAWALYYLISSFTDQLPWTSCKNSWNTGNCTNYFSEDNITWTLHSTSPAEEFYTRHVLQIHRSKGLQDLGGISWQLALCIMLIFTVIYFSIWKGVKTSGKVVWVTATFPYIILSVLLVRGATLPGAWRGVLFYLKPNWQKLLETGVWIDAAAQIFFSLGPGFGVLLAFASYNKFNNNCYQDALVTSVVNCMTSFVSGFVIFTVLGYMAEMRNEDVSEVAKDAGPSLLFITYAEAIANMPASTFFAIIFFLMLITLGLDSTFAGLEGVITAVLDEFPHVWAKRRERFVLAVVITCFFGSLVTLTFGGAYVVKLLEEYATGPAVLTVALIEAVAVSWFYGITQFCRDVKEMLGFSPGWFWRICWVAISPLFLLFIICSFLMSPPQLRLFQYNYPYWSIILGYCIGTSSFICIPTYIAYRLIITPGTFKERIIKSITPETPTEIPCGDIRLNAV
Chain of 5-hydroxytryptamine receptor 2A (P28223 whole entry): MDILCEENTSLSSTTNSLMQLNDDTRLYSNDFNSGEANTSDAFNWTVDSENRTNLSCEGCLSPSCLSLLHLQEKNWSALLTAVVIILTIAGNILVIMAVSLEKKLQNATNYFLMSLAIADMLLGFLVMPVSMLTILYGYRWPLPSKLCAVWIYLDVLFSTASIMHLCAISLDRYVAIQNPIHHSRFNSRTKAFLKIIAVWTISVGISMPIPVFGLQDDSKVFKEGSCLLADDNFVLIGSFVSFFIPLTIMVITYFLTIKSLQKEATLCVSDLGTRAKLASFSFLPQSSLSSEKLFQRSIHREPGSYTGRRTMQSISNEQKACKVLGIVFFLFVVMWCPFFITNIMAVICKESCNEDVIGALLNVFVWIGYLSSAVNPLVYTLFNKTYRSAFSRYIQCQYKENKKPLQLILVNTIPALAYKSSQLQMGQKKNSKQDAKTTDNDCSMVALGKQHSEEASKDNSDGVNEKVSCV
Chain of Glutamate receptor ionotropic, NMDA 2A (Q12879 whole entry): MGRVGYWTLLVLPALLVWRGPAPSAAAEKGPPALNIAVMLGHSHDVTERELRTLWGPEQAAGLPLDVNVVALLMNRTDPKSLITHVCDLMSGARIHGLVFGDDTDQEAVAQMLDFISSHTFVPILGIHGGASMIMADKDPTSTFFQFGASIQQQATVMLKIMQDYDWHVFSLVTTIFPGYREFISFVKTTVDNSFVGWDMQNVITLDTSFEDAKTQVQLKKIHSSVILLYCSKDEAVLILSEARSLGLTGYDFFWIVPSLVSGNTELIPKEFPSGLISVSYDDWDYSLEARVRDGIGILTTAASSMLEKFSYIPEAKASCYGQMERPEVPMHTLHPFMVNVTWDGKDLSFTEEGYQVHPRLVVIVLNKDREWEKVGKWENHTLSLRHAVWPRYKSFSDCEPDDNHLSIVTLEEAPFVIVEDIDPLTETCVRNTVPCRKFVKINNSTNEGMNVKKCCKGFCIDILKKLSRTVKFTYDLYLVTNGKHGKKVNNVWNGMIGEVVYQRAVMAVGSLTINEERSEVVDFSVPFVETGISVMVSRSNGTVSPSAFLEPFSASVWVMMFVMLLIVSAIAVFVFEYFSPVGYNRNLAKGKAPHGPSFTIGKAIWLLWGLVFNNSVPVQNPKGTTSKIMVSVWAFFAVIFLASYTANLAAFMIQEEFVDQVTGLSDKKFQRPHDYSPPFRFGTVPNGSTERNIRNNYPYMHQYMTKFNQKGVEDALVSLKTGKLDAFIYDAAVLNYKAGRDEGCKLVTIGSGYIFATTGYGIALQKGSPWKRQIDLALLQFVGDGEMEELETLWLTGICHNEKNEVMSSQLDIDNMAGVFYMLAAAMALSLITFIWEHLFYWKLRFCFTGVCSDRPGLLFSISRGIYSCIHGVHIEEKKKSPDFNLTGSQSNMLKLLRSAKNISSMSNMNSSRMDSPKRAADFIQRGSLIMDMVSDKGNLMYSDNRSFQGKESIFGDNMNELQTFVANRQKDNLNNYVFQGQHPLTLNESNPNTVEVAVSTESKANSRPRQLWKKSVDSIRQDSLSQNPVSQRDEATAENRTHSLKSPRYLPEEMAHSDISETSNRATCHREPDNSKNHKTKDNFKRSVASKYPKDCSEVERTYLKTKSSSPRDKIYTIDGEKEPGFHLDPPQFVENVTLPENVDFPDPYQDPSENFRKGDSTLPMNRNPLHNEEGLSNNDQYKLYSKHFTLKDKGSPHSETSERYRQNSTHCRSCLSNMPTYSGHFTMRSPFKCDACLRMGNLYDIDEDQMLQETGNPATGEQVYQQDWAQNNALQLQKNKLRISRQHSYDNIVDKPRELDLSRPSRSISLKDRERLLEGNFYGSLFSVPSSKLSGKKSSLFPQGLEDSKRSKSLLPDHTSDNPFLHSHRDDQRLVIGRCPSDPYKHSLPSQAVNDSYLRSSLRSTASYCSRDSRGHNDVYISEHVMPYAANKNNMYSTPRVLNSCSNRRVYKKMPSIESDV
Chain of Histamine H4 receptor (Q9H3N8 whole entry): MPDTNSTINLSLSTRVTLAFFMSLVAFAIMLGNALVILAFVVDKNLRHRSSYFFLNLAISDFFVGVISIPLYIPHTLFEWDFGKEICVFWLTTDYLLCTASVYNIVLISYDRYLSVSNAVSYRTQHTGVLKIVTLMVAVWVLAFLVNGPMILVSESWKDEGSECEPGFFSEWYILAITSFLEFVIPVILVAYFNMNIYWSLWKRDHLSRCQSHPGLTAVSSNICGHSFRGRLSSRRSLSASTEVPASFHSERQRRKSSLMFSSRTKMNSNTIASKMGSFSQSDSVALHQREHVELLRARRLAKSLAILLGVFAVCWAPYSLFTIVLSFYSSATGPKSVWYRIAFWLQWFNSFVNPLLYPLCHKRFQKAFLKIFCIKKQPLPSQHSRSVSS
Chain of 5-hydroxytryptamine receptor 6 (P50406 whole entry): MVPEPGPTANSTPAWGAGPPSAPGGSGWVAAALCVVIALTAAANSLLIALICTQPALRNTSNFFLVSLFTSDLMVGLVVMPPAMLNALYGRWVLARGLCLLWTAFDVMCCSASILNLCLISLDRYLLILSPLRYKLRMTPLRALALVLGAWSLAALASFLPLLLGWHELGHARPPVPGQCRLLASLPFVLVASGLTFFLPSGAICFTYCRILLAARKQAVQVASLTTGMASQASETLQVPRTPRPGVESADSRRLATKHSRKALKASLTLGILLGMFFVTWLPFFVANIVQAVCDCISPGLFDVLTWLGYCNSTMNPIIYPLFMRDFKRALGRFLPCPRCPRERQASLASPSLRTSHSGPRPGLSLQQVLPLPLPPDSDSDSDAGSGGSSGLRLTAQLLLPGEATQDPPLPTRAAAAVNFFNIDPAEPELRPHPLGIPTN
Chain of 5-hydroxytryptamine receptor 1D (P28221 whole entry): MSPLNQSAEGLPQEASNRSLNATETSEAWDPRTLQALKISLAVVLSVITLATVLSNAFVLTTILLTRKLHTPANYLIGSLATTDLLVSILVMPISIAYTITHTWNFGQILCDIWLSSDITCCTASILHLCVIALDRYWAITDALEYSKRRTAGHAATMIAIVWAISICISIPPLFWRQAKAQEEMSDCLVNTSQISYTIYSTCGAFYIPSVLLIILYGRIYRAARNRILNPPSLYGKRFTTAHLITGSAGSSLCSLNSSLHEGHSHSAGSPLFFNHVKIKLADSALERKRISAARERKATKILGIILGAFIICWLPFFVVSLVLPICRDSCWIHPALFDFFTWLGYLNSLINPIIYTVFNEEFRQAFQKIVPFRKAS

Row | SMILES | Ki [1] | Ki [2] | Ki [3] | Ki [4] | Ki [5] | Ki [6] | Ki [7] | Ki [8] | Ki [9] | Ki [10] | Ki [11] | Ki [12] | Ki [13] | Ki [14] | Ki [15]
1 | CC(N)Cc1ccc2c(c1)OCO2 (stereo not drawn) | > 10 µM | > 10 µM | > 10 µM | > 10 µM | 3.76 µM | > 10 µM | 0.091 µM | > 10 µM | 1.66 µM | > 10 µM | > 10 µM | > 10 µM |  |  | 
2 | CC[C@H]1C[C@@H]2C[C@H]3c4[nH]c5ccc(OC)cc5c4CCN(C2)[C@@H]13 | > 10 µM | > 10 µM |  | > 10 µM | > 10 µM | 14.1 µM |  |  |  |  | > 10 µM |  | > 10 µM | 4.36 µM | 2 µM
3 | CN(C)CCc1c[nH]c2ccccc12 [2-(1H-indol-3-yl)-N,N-dimethylethanamine] | > 10 µM | > 10 µM | 0.487 µM | 0.093 µM |  | 2.32 µM |  | > 10 µM | 1.56 µM | 3.74 µM | > 10 µM | 0.456 µM |  |  | 
4 | CCSc1cc(OC)c(CC(C)N)cc1OC (stereo not drawn) [2-(4-Ethylsulfanyl-2,5-dimethoxy-phenyl)-1-methyl-ethylamine] | > 10 µM | > 10 µM |  | 1.53 µM | 1.67 µM | 0.0604 µM | 0.0016 µM | > 10 µM | 5.8 µM | 1.32 µM | > 10 µM |  | > 10 µM | > 10 µM | > 10 µM
5 | NCCc1c2c(c(Br)c3c1OCC3)OCC2 [2-(8-Bromo-2,3,6,7-tetrahydro-benzo[1,2-b;4,5-b']difuran-4-yl)-ethylamine] | > 10 µM | > 10 µM | 0.15 µM | 0.0014 µM | 0.147 µM | 0.0116 µM | 0.0009 µM | > 10 µM | 0.145 µM | > 10 µM | > 10 µM | 0.11 µM | > 10 µM | > 10 µM | 
6 | CCc1[nH]c2ccc(OC)cc2c1CCN(C)C [2-ethyl-5-methoxy-N,N-dimethyltryptamine] |  |  |  |  |  | > 10 µM |  | > 10 µM |  |  | > 10 µM |  | > 10 µM | > 10 µM | > 10 µM
7 | COC(=O)[C@@H]1C[C@H](OC(C)=O)C(=O)[C@H]2[C@@]1(C)CC[C@H]1C(=O)O[C@H](c3ccoc3)C[C@]21C [2S,4aR,6a(R,7R,9S,10aS,10bR)-9-(acetyloxy)-2-(furan-3-yl)dodecahydro-6a,10b-dimethyl-4,10-dioxo-2H-naphtho[2,1-c]pyran-7-carboxylic acid methyl ester] |  |  | > 10 µM | > 10 µM | > 10 µM | > 10 µM | > 10 µM |  |  | > 10 µM | > 10 µM | > 10 µM |  |  | 
8 | COc1cc(CCN)cc(OC)c1OC [3,4,5-trimethoxyphenylethylamine] | > 10 µM | > 10 µM | > 10 µM | > 10 µM | 1.84 µM | > 10 µM |  | > 10 µM | 8.93 µM | > 10 µM | > 10 µM | 5.2 µM | > 10 µM | > 10 µM | > 10 µM
9 | COc1ccc2[nH]cc(CCN(C)C)c2c1 [3-(2-DIMETHYLAMINOETHYL)-5-METHOXYINDOLE] | > 10 µM |  |  |  |  |  |  |  | 1.89 µM | 2.03 µM | 3.12 µM |  |  |  | 
10 | CN(C)CCc1c[nH]c2cccc(O)c12 [4-hydroxy-N,N-dimethyltryptamine] | > 10 µM | > 10 µM |  |  |  |  |  | > 10 µM |  | 0.852 µM | > 10 µM |  | > 10 µM | > 10 µM | 
11 | COc1cc(OC)c(OC)cc1CC(C)N (stereo not drawn) [(+/-)1-Methyl-2-(2,4,5-trimethoxy-phenyl)-ethylamine] |  | > 10 µM | > 10 µM | > 10 µM | > 10 µM | 0.584 µM | 0.154 µM | > 10 µM | > 10 µM | > 10 µM | > 10 µM | > 10 µM |  |  | 
12 | COc1ccc2[nH]c(C)c(CCN(C)C)c2c1 [[2-(5-Methoxy-2-methyl-1H-indol-3-yl)-ethyl]-dimethyl-amine (C2H2O)] |  |  |  |  |  | > 10 µM |  | > 10 µM |  |  | > 10 µM |  | > 10 µM | > 10 µM | > 10 µM
13 | CCN(CC)C(=O)[C@@H]1C=C2c3cccc4[nH]cc(c34)C[C@H]2N(C)C1 [[N-methyl-3H]LSD] | > 10 µM | > 10 µM |  | 0.0078 µM |  |  |  |  |  | > 10 µM | 0.158 µM |  | > 10 µM | > 10 µM | > 10 µM
14 | C[C@@H]1C[C@H](C)N1C(=O)C1C=C2c3cccc4[nH]cc(c34)C[C@H]2N(C)C1 (stereo partly drawn) [cis-2a] | > 10 µM | > 10 µM | 0.0129 µM |  | 0.0023 µM | 0.0297 µM | 0.044 µM |  |  | > 10 µM |  | 0.195 µM | > 10 µM | > 10 µM | > 10 µM
15 | CNC(C)Cc1ccc2c(c1)OCO2 (stereo not drawn) [mdma] | > 10 µM | > 10 µM | > 10 µM | > 10 µM | > 10 µM | > 10 µM | 0.5 µM |  | 2.53 µM | > 10 µM | > 10 µM | > 10 µM |  | > 10 µM | > 10 µM
16 | C[C@@H]1C[C@@H](C)N1C(=O)C1C=C2c3cccc4[nH]cc(c34)C[C@H]2N(C)C1 (stereo partly drawn) [rr-2b] | > 10 µM | > 10 µM | 0.0605 µM | 0.018 µM | 0.0052 µM | 0.69 µM | 0.312 µM |  |  | > 10 µM |  | 0.138 µM | > 10 µM | > 10 µM | > 10 µM
